Results on 88 compounds are retold here after a melting point compilation (Tetko et al.; mined from patent text by program, amines drawn as free bases though some values may be those of a salt).

By melting point is commonly meant the temperature of the solid-liquid transition.

As to `Cc1cc(-n2ncc(-c3ccc(S(C)(=O)=O)cc3)c(-c3ccc(F)cc3)c2=O)ccc1F`, the melting point is 168 to 170 °C. To `CCCCCCCCCN(c1ccccc1)P(=O)(O)O` belongs 64 to 65 °C; to `OCc1cc2cc(O)c(Cl)c(Cl)c2s1`, 167 to 169 °C. To `CC1(CC(=O)O)CCc2ccc3ccccc3c2C1=O` (stereo not drawn) belongs 80 to 83 °C. As to `CCOC(=O)C1=C(C)NC(=S)N(C(=O)OCC)C1c1cccc(Cl)c1` (stereo not drawn), the melting point lay in the range of 95 to 97 °C. To `C[C@H]([C@](O)(Cn1cncn1)c1ccc(F)cc1F)S(=O)(=O)N1CCOCC1` belongs 157 to 158 °C; to `CNc1ncc2c(-c3cccc(Cl)c3)cc(/C=C/C(=O)O)c(OC)c2n1`, 291 to 295 °C. The compound `O=c1cc(O)c2cccnc2n1-c1ccccc1` gave a melting point of 311 to 313 °C. To `CCCCCCCCCCCCSCN(O)CSCCCCCCCCCCCC` belongs 63 to 65 °C. Take `CS(=O)(=O)c1cccc(C2=C(C3CCCC3)CCC2=NO)c1`: the melting point fell in the range of 164 to 165 °C. For `COc1ccnc(CSc2nc3cscc3n2C(=O)OCc2ccccc2)c1`, the melting point is 102 to 104 °C. In turn, `N=C(NCCCn1cc(C2=CC(=O)NC2=O)c2ccccc21)c1ccc(O)cc1` yielded a melting point of more than 300 °C.

`CC(=O)n1c2ccccc2c2ccccc21` registered a melting point of 70 to 71 °C.

In turn, `Cc1ccc(C(=O)O)c(Nc2ccc3cn[nH]c3c2)n1` yielded a melting point of 273 to 274 °C.

On to `Cc1cc(Oc2c(Cl)cc(C(F)(F)F)cc2Cl)nn1C(=O)OC(C)(C)C`, for which the melting point was in the range of 159 to 161 °C. In turn, `COc1cc(OC)c(C(=O)CCCCCl)cc1NS(=O)(=O)c1ccc(C(F)(F)F)cc1` showed a melting point of 150 to 153 °C. The compound `OCc1nnc(-c2cc3c(OC[C@@H](O)CN4CCC(c5ccc(Cl)c(Cl)c5)CC4)cccc3o2)o1` displayed a melting point of 158 to 160 °C. Compound `O=C(NC1CN2CCC1CC2)c1cccc2nc(-c3ccc(F)cc3)oc12` (stereo not drawn) registered a melting point of 185 to 187 °C. In turn, `COc1cc2c(cc1OCc1ccccc1)C(OC)CN(Cc1cc(OC)c(OC)c(OC)c1)C2` (stereo not drawn) yielded a melting point of 89 to 90 °C. Regarding `CC1(C)Oc2ccncc2C2OC21` (stereo not drawn), the melting point lay within 208 to 210 °C. The compound `CCOCc1nc2cnc3cccnc3c2n1Cc1ccccc1` gave a melting point of 118 to 119 °C. To `O=C(Cl)c1cc([N+](=O)[O-])ccc1F` belongs 59 to 60 °C. The compound `CC(=O)NNc1ccnc2c(NC(=O)c3c(Cl)cccc3Cl)cc(C(F)(F)F)cc12` had a melting point of 174 to 178 °C. Compound `CS(=O)(=O)NCCCCCCCCCCCn1c2c(c3ccccc3c1=O)C(=O)c1ccccc1-2` showed a melting point of 136 to 137 °C. The compound `O=C(O)C1CCCc2c(-c3ccc(C(F)(F)F)cc3)noc2C1` (stereo not drawn) had a melting point of 222 to 225 °C. On to `CC(C)(C)NC(=O)c1ccccc1O`, for which the melting point is 78 to 79.5 °C. Compound `COc1cccc(OCC(=O)c2cc(OCc3ccccc3)ccc2OC)c1` registered a melting point of 76 to 77 °C. With `CCCCc1nn(CC(F)(F)F)c(C(=O)O)c1Cc1ccc2oc(-c3ccccc3-c3nnn[nH]3)c(Br)c2c1` the figure was 216 to 220 °C; with `Cc1nc(N)c2nc(C)n(CCNS(C)(=O)=O)c2c1C`, more than 250 °C. As to `CCOC=Cc1nc2c(=O)n(Cc3ccccc3)cnc2n1Cc1ccccc1`, the melting point was in the range of 167 to 168 °C. In turn, `CC(C)[C@H](C[C@@H]1OC(C)(C)N(C(=O)OC(C)(C)C)[C@H]1CC1CCCCC1)C(=O)NCCNc1nc(N)n[nH]1` had a melting point of 99 to 112 °C. In the case of `CCCCCCCCCCCCCCCCNC(=O)CC#N`, the melting point lay within 95.5 to 96.5 °C. `COc1cc2c(cc1OC)CN(CCCSc1ccc(NC(=O)c3cccc4c(=O)c5cccc(C)c5[nH]c34)cc1)CC2` showed a melting point of 155 °C.

`CC(=O)N(C)C(=O)ON=C1SCC(=O)NC1(C)C` gave a melting point of 218 to 220 °C. `CCOC(=O)c1ncc2[nH]c3cccc(Oc4ccccc4)c3c2c1COC` displayed a melting point of 174 to 176 °C. Turning to `CCCN1NC(c2ccc(Cl)cc2)C2=C1C(=Cc1ccc(Cl)cc1)CSC2` (stereo not drawn), the melting point was in the range of 192 to 194 °C. Consider `CC(=O)Nc1cccc(-n2ccnc2)c1`, for which the melting point is 181 to 183 °C. `O=C(NCCCCn1cncn1)c1ccco1` displayed a melting point of 78 to 79 °C. Consider `CS(=O)(=O)OCC(O)(CC(Cl)(Cl)Cl)c1cc(Cl)cc(Cl)c1` (stereo not drawn), for which the melting point lay in the range of 99 to 104 °C.

Turning to `CNc1nc(-c2cccc(C#Cc3cccnc3)c2)c2cc(OC)c(OC)cc2n1`, the melting point is 103 to 105 °C. Compound `O=C(O)Cn1c2c([nH]c(=O)c1=O)CCC1=C2C=C(n2ccc(CN3CCN(c4ccc([N+](=O)[O-])cc4)CC3)c2)CC1` returned a melting point of more than 300 °C. With `COc1ccc(CN2C(=O)C(C)(c3cc(COCCN4CCOCC4)ccc3Cl)c3cc(Cl)ccc32)c(OC)c1` (stereo not drawn) the figure was 81 °C; with `Cc1cccc(C(=O)n2c3c(c4ccccc42)CC(C(=O)O)(C(=O)O)CC3)c1`, 195 to 200 °C; with `CC(C)c1ccccc1N1C(=O)CON(C)C1=S`, 98 to 101 °C.

Compound `CN(C)c1cccc(C(=O)COc2cccc(Cl)c2)c1` gave a melting point of 70 to 72 °C. `COC1CCC2C3CCC4CC(C)(O)CCC4(C)C3CCC12C` (stereo not drawn) yielded a melting point of 151 to 154 °C. Compound `O=C(CCCC(=O)Oc1cc(O)cc(O)c1)Oc1cc(O)cc(O)c1` returned a melting point of 205 to 208 °C. Take `COc1ccc2nc(-c3cccc(F)c3)cc(OP(=O)(O)O)c2c1OP(=O)(O)O`: the melting point is 120 to 122 °C. With `COC(=O)c1csc(-c2ccc(OC)cc2)n1`, the melting point lay within 67 to 79 °C. Turning to `NS(=O)(=O)c1cccc(-c2cccc(-c3nc(-c4ccc(C(F)(F)F)c(OCC(F)(F)F)c4)cc(C(F)(F)F)n3)c2)c1`, the melting point was found to be 188 °C. `Cc1onc(NS(=O)(=O)c2cccc3ccccc23)c1Br`: the melting point fell in the range of 167 to 170 °C. With `CCOC(=O)C(=CNc1ncnn1C)C(=O)c1cc(F)c(Cl)nc1Cl` the figure was 102 to 103 °C. `O=C(OC1CCCCO1)C(c1ccccc1)(c1ccccc1)c1ccccc1` (stereo not drawn): the melting point turned out to be 115 °C. Compound `O=C1N[C@H](Cc2ccc(Oc3ccccc3)cc2)[C@H](c2ccc(F)cc2)O1` (racemic) showed a melting point of 144 to 145 °C.

The compound `O=C(O)CCc1cc2nc(Cl)ccc2n1S(=O)(=O)c1cccc2ccccc12` displayed a melting point of 93 °C. For `C=C1SC(=O)N(c2ccc3cc(-c4cc5c(c(-c6ccncc6)c4)OCO5)ccc3c2)C1=O`, the melting point lay in the range of 304 to 307 °C. For `CNc1c(C)cc(C(C)(C)c2ccc(C(C)(C)c3cc(C)c(NC)c(C)c3)cc2)cc1C`, the melting point was 110 to 115 °C.

Compound `COc1cc(OC)nc(Oc2cccc(Cl)c2C(=O)ON(C)C)n1` returned a melting point of 80 to 81 °C.

Turning to `O=C(Cc1ccccc1Nc1c(Cl)cccc1Cl)OCCOCCO[N+](=O)[O-]`, the melting point is 73 °C. To `CCN(CC)CCNC(=O)c1ccc2cc(I)ccc2n1` belongs 75 to 77 °C. With `CNc1nccc2c1nnn2Cc1ccccc1` the figure was 269 to 273 °C; with `CCOc1cc(N=Nc2ccc(OC)cc2)c(O)c(C(C)(C)C)c1`, 105 to 108 °C; with `CC(C)(C)C(=O)c1c[nH]c2ncc(-c3ccc(C(=O)NC4CCCC4)s3)nc12`, more than 300 °C. Compound `COc1ccc(CN(C)CCOc2ccc(NC(=O)c3cccc4c(=O)c5cccc(OC)c5[nH]c34)cc2)cc1OC` returned a melting point of 184 °C. To `Cc1c(NC(=O)CC(C)(C)C)c(C)c2c(c1-c1cccc(N)n1)OCC2c1ccc(C(C)C)cc1` (stereo not drawn) belongs 237 to 239 °C; to `COc1ccccc1C1(NCCC(=O)OC(C)(C)C)C(=O)Nc2ccc(Cl)cc21` (stereo not drawn), 170 °C. `Cc1coc(N2CCCC2=O)n1` registered a melting point of 116 °C.

The compound `Nc1nnc(SCC(CS(=O)(=O)c2ccc(-c3ccc(Cl)cc3)cc2)C(=O)O)s1` (stereo not drawn) displayed a melting point of 184 to 186 °C. To `CCOC(=O)[C@@H](NS(=O)(=O)c1ccc(N2CCC(=O)CC2)cc1)C(C)C` belongs 77 to 80 °C; to `Cc1c(N2CC3(CC3)[C@](C)(N)C2)ccc2c(=O)c(C(=O)O)cn([C@@H]3C[C@@H]3F)c12`, 157 to 159 °C. Compound `CCOC(=O)c1c(C)nc2c(cnn2CC)c1Cl` registered a melting point of 54 to 56 °C. The compound `COc1ccc(NCCNC(=O)c2ccc(OCC=C(C)CCC=C(C)C)cc2)nc1` registered a melting point of 70.8 to 71.7 °C.

Take `CCOc1nnc2c3ccc(Cl)cc3c(-c3ccccc3)nn12`: the melting point fell in the range of 226 to 228 °C. For `CC(C)c1nc(CN2C(=O)C3(COc4cc5c(cc43)OCO5)c3ccccc32)co1` (stereo not drawn), the melting point lay within 118 to 120 °C. `CN(C)c1nc2n(n1)CCc1ccccc1-2` registered a melting point of 66 to 68 °C. `N#Cc1cc(Cl)cc(Oc2ccc(CC(=O)Nc3ccc(S(N)(=O)=O)cc3Br)cc2Br)c1` registered a melting point of 168 to 170 °C. To `OCC1(CO)c2ccccc2C=Cc2ccccc21` belongs 162 to 163 °C; to `CNC(=O)On1cc(Cl)cn1`, 125 °C. The compound `COc1ccc(C(O)Cc2ccncc2)c2c1OC1(CCCCC1)CC2` (stereo not drawn) came in with a melting point of 123 to 133 °C.

Regarding `COc1ccc2c(c1)OC1(O)c3ccccc3C(=O)C21O` (stereo not drawn), the melting point lay within 98 to 100 °C.

`CCN[C@H]1CCN(c2c(-c3ccccc3)c(C)c(C#N)c3nc(C4CC4)oc23)C1` registered a melting point of 209 to 211 °C. Compound `CNC(=O)Oc1ccc(NS(C)(=O)=O)c(C)c1` gave a melting point of 167 to 169 °C.

Regarding `FC(F)(F)c1cccc2c(-c3ccccc3)c(Oc3ccccc3)cnc12`, the melting point lay within 153 to 155 °C.

In turn, `OCCN(CCO)CC(c1ccc(Cl)cc1)c1ccc(Cl)cc1` had a melting point of 75 to 76 °C. As for `Cc1cc(Cl)cc2nc3c(=O)[nH][nH]c(=O)c3c(O)c12`, the melting point was in the range of 117 to 119 °C. Consider `OC(CN1CCC(O)(Cc2ccccc2)CC1)c1ccc(Cl)cc1` (stereo not drawn), for which the melting point was 151 to 152 °C. To `CC1CN(c2ccc(C(N)=O)cc2)CC(C)N1CCC1OCCc2ccccc21` (stereo not drawn) belongs 206 to 207 °C; to `CC(C)(C=NO)C(O)(CCc1ccc(F)cc1)Cn1cncn1` (stereo not drawn), 101 to 103 °C.
